Source: patent US7803813B2, “Substituted 2-carbonylamino-6-piperidinaminopyridines and substituted 1-carbonylamino-3-piperidinaminobenzenes as 5-HT1F agonists” (Eli Lilly and Company, priority 2003, dated 2010)
Counter-ions that a name gives are not always drawn.

Legend:
rabbit saphenous vein = test: Rabbit saphenous vein contraction
Experimental: Bend the tips of two 30-gauge stainless steel hypodermic needles into an L-shape and slip them into the lumen of the polyethylene tubing. Gently push vein tissue from the cannula onto the needles. Separate the needles and attach the lower needle with thread to a stationary glass rod and the upper needle with thread to a force transducer (Statham UC-3). Mount the tissues in organ baths containing 10 mL of modified Krebs' solution. Maintain tissue bath solutions at 37° C. and […] […] Apply an initial optimum resting force of 4 grams to the vein tissue. Record isometric contractions as changes in grams of force on a Beckman Dynograph with Statham UC-3 transducers and microscale accessory attachments. […] Flush the bath, allow the tissue to re-equilibrate under a 4 gram force, add test compound and record the force of contraction. Add additional compound to achieve the next concentration in a range of compound concentrations to generate cumulative agonist concentration-response curves for each test compound. Tissues can be used to generate up to two agonist concentration-response curves. […] Two important parameters can be measured with this vasoconstriction assay, saphenous vein contraction (EC50) and maximal contraction as a percentage of the maximal KCl response (%max KCl).

Compound | melting point | other results
CN1CCC(Nc2cccc(NC(=O)c3ccc(F)cc3Cl)c2)CC1.Cl.Cl | 180 °C | –
CN1CCC(Nc2cccc(NC(=O)c3ccccc3OC(F)(F)F)c2)CC1.Cl.Cl | 159 to 162 °C | –
CN1CCC(N(C)c2cccc(NC(=O)c3ccc(F)cc3Cl)c2)CC1.Cl.Cl | 172 °C | –
CN1CCC(N(C)c2cccc(NC(=O)c3c(F)cc(F)cc3F)c2)CC1.Cl.Cl | 199 to 200 °C | –
CN1CCC(N(C)c2cccc(NC(=O)c3c(F)cccc3Cl)c2)CC1.Cl.Cl | 214 to 217 °C | –
Cl.Cl.O=C(Nc1cccc(NC2CCNCC2)c1)c1ccc(F)cc1Cl | 255 to 257 °C | –
CN1CCC(N(C)c2cccc(NC(=O)c3ccccc3Br)c2)CC1.Cl.Cl | 196 to 197 °C | –
CN1CCC(N(C)c2cccc(NC(=O)c3ccc(F)cc3F)c2)CC1.Cl.Cl | 165 to 168 °C | –
CN1CCC(N(C(=O)C2CC2)c2cccc(NC(=O)c3ccc(F)cc3Cl)c2)CC1.Cl | 133 to 136 °C | –
CN1CCC(N(C)c2cccc(NC(=O)c3c(Cl)cccc3Cl)c2)CC1.Cl | 164.2 °C | –
Cc1ccccc1C(=O)Nc1cccc(N(C)C2CCN(C)CC2)c1.Cl | 82.4 °C | –
CN1CCC(N(C)c2cccc(NC(=O)c3ccccc3C(F)(F)F)c2)CC1.Cl | 84.5 °C | –
C[C@H]1C[C@@H](Nc2cccc(NC(=O)c3ccc(F)cc3Cl)c2)CCN1.Cl | 202 °C (dec.) | –
CN1CCC(Nc2cccc(NC(=O)c3c(F)cccc3Cl)c2)CC1.Cl.Cl | 192 to 194 °C | –
C[C@H]1C[C@@H](Nc2cccc(NC(=O)c3ccc(F)cc3Cl)c2)CCN1C.Cl | 91 to 94 °C | –
C[C@@H]1C[C@H](Nc2cccc(NC(=O)c3ccc(F)cc3Cl)c2)CCN1.Cl | 182 to 185 °C | –
C[C@@H]1C[C@H](Nc2cccc(NC(=O)c3ccc(F)cc3Cl)c2)CCN1C.Cl | 159 to 162 °C | –

Compound | melting point | other results
CN1CCC(Nc2cccc(NC(=O)c3c(F)cccc3F)c2)CC1.Cl.Cl | 198 °C (dec.) | –
CN1CCC(Nc2cccc(NC(=O)c3ccc(F)cc3F)c2)CC1.Cl.Cl | 262 °C (dec.) | –
CN1CCC(Nc2cccc(NC(=O)c3ccc(F)cc3C(F)(F)F)n2)CC1.Cl | 84.9 °C | –
CN1CCC(Nc2cccc(NC(=O)c3ccc(F)c(F)c3F)n2)CC1.Cl | 231.4 °C (dec.) | –
CN1CCC(Nc2cccc(NC(=O)c3c(F)cc(F)cc3F)c2)CC1.Cl.Cl | 257 °C (dec.) | –
CN1CCC(N(C)c2cccc(NC(=O)C3CCCCC3)n2)CC1.Cl | 250 to 252 °C | –
CN1CCC(Nc2cccc(NC(=O)c3ccccc3Br)c2)CC1.Cl.Cl | 192 to 193 °C | –
CN(c1cccc(NC(=O)c2ccc(F)cc2Cl)n1)C1CCNCC1.Cl | 152.1 °C | –
CN1CCC(Nc2cccc(NC(=O)c3ccccc3Cl)c2)CC1.Cl.Cl | 206 to 208 °C | –
CN1CCC(N(C)c2cc(F)cc(NC(=O)c3sccc3Br)c2)CC1 (as salt: hydrochloric acid salt) | 175 to 180 °C | –
CN1CCC(N(C)c2cc(F)cc(NC(=O)c3ccc(F)cc3F)c2)CC1 (as salt: hydrochloric acid salt) | 175 °C | –
CN1CCC(N(C)c2cc(F)cc(NC(=O)c3ccccc3Cl)c2)CC1 (as salt: hydrochloric acid salt) (hydrate or solvate) | 170 to 175 °C | –
CCC(=O)Nc1cccc(N(C)C2CCN(C)CC2)n1.Cl (hydrate or solvate) | 216 to 218 °C | –
CN1CCC(N(C)c2cccc(NC(=O)C3CCC3)n2)CC1.Cl (hydrate or solvate) | 258 to 260 °C | –
CN1CCC(N(C)c2cccc(NC(=O)C3CC3)n2)CC1.Cl (hydrate or solvate) | 258 to 260 °C | –
CNS(=O)(=O)Cc1ccc2[nH]cc(CCN(C)C)c2c1 [sumatriptan] | – | corrected vasoconstriction EC50 (EC50 divided by %max KCl) (rabbit saphenous vein): 10.3 nM; EC50 (rabbit saphenous vein; Oryctolagus cuniculus): 660 nM

Continued, in another order:

melting point | Compound | other results
76.1 °C | CN1CCC(N(C)c2cccc(NC(=O)c3ccc(F)cc3)c2)CC1.Cl | –
126 to 128 °C | CN1CCC(N(C)c2cccc(NC(=O)c3cccs3)n2)CC1.Cl | –
152.4 °C | CN(c1cccc(NC(=O)c2ccc(F)cc2)n1)C1CCNCC1.Cl | –
75.6 °C | CCN1CCC(N(C)c2cccc(NC(=O)c3ccc(F)cc3)n2)CC1.Cl | –
132.9 °C | CCN1CCC(N(C)c2cccc(NC(=O)c3ccc(F)cc3Cl)n2)CC1.Cl | –
84.7 °C | CCCN1CCC(N(C)c2cccc(NC(=O)c3ccc(F)cc3)n2)CC1.Cl | –
258 °C (dec.) | CCCN1CCC(N(C)c2cccc(NC(=O)c3ccc(F)cc3Cl)n2)CC1.Cl | –
81.6 °C | CN(c1cccc(NC(=O)c2ccc(F)cc2)n1)C1CCN(CC2CC2)CC1.Cl | –
257.5 °C | CN(c1cccc(NC(=O)c2ccc(F)cc2Cl)n1)C1CCN(CC2CC2)CC1.Cl | –
85.8 °C | CC(C)n1cc(CCN2CCC(N(C)c3cccc(NC(=O)c4ccc(F)cc4)n3)CC2)cn1.Cl | –
96.7 °C | CC(C)n1cc(CCN2CCC(N(C)c3cccc(NC(=O)c4ccc(F)cc4Cl)n3)CC2)cn1.Cl | –
175 °C | CN1CCC(N(C)c2cc(F)cc(NC(=O)c3ccc(F)cc3)c2)CC1 (as salt: hydrochloric acid salt) | –
229 to 231 °C | CN1CCC(N(C)c2cccc(NC(=O)c3ccc(F)cc3Cl)n2)CC1.Cl (hydrate or solvate) | –
250 to 252 °C | CN1CCC(N(C)c2cccc(NC(=O)c3ccc(F)cc3)n2)CC1.Cl (hydrate or solvate) | –
274 to 277 °C | CN1CCC(N(C)c2cccc(NC(=O)c3ccncc3)n2)CC1.Cl (hydrate or solvate) | –
116 to 119 °C | CN1CCC(N(C)c2cccc(NC(=O)c3ccco3)n2)CC1.Cl (hydrate or solvate) | –
308 °C (dec.) | CN1CCC(N(C)c2cccc(NC(=O)c3c(F)cccc3F)n2)CC1.Cl (hydrate or solvate) | –
302 °C (dec.) | CN1CCC(N(C)c2cccc(NC(=O)c3c(F)cc(F)cc3F)n2)CC1.Cl (hydrate or solvate) | –
90 to 92 °C | CN1CCC(N(C)c2cccc(NC(=O)c3ccccc3Cl)n2)CC1.Cl (hydrate or solvate) | –
283 to 286 °C | CN1CCC(N(C)c2cccc(NC(=O)c3c(F)cccc3Cl)n2)CC1.Cl (hydrate or solvate) | –
100 to 102 °C | CN1CCC(N(C)c2cccc(NC(=O)c3ccc(F)cc3C(F)(F)F)n2)CC1.Cl (hydrate or solvate) | –
102 to 104 °C | CN1CCC(N(C)c2cccc(NC(=O)c3ccccc3OC(F)(F)F)n2)CC1.Cl (hydrate or solvate) | –
